For one data set, the system named is MCF-7:C cells. The conditions noted are these: 10 nM; cited from earlier work.
A further data set has as its system hepatitis B virus (HBV). The conditions noted are these: HepG2 2.2.15 cells infected with HBV; cited from earlier work.
The test system of the next data set is HepG2 2.2.15 cells. As to conditions: cited from earlier work.
A further data set concerns HBV. As to conditions: mouse, in vivo; cited from earlier work.
In a further data set the test system is HIV-1. As to conditions: MT-4 cells; cited from earlier work.
The target of data set [1] is transient receptor potential canonical channel 5 (TRPC5) (Homo sapiens, UniProt Q9UL62). As to conditions: cited from earlier work.
For the next data set, the system named is S. pneumoniae. The conditions noted are these: various strains; cited from earlier work.
The next data set deals with S. viridans. As to conditions: various strains; cited from earlier work.
A further data set concerns S. aureus. The conditions noted are these: various strains; cited from earlier work.
The test system of another data set is S. epidermidis. The conditions noted are these: various strains; cited from earlier work.
The target of data set [2] is lysophosphatidic acyl transferase (LPAAT). The conditions noted are these: LPS-activated LPAAT; read-out: IC50 (generation of phosphatidic acid); cited from earlier work.
The test system of data set [3] is isolated peripheral blood mononuclear cells. The conditions noted are these: cited from earlier work.
Data set [4] concerns the target human acidic mammalian chitinase (Homo sapiens, UniProt Q9BZP6). The conditions noted are these: cited from earlier work.
The target in a further data set is HIV-2 protease (Human immunodeficiency virus type 2 subtype A, UniProt P04584). The conditions noted are these: cited from earlier work.
The conditions of data set [5]: 20 mg/kg saquinavir with 50 mg/kg ritonavir, mice; cited from earlier work.
For another data set, the target named is T1, ACE2 (Homo sapiens, UniProt Q9BYF1).
T1 construct: purchased BPS Bioscience 79923 (assay kit)
Briefly: ACE2 activity assay. It is filed as biochemical. From the text: The ACE2 Activity Assay described in this example is designed to measure the exopeptidase activity of ACE2 for screening and profiling applications. The ACE2 assay can be performed in a convenient 96-well format, with purified ACE2, its substrate, and ACE2 buffer for 96 reactions. See https://bpsioscience.com/ace2-inhibitor-screening-assay-kit-79923
ACE2, ACE2 Fluorogenic Substrate, ACE2 buffer, 96-well black microplate. Adjustable micropipettor and sterile tips and Fluorescent microplate reader.
All Samples and Controls were Tested in Duplicate.
• 1. Thawed ACE2 on ice. Upon first thaw, tube containing enzyme was briefly spun to recover full contents of the tube. Note: ACE2 is sensitive to freeze/thaw cycles. • 2. Prepared Enzyme solution (0.5 ng/μl ACE2) by diluting ACE2 in ACE2 Buffer. • 3. Added 20 μl of Enzyme solution (0.5 ng/μl ACE2) to each well designated “Positive Control” and “Test Inhibitor,” and 20 μl of ACE2 buffer to each well designated “Blank.” • 4. Added 5 μl of Test Inhibitor solution to each well designated “Test Inhibitor.” For the wells labeled “Positive Control” and “Blank,” added 5 μl of 10% DMSO in water (Inhibitor buffer). The final concentration of DMSO in the reaction was kept ≤1%. • 5. Added 25 μl of ACE2 Fluorogenic Substrate to all wells. Protected from light and reaction was incubated at room temperature for 60 minutes.
• 6. The fluorescence intensity of the samples (λexcitation=555 nm; λemission=585 nm) was read in an appropriate microplate reader. Data Analysis
All of the enzyme activity assays were performed in duplicates at each concentration. The fluorescent intensity data were analyzed using the computer software Graphpad Prism. In the absence of the compound, the fluorescent intensity (Ft) in each data set was defined as 100% activity. In the absence of the enzyme, the fluorescent intensity (Fb) in each data set was defined as 0% activity. The percent activity in the presence of each compound was calculated according to the following equation: % activity=(F−Fb)/(Ft−Fb), where F=the fluorescent intensity in the presence of the compound.
The values of percentage activity were plotted on a bar graph.

Another data set has as its target γ-secretase. The conditions noted are these: cited from earlier work.
A further data set has as its system Notch signaling. The conditions noted are these: cited from earlier work.
The target of the next data set is HIV aspartyl protease (Human immunodeficiency virus type 1 group M subtype B, UniProt P04585). The conditions noted are these: cited from earlier work.
Data set [6] relates to HT-29 human colon adenocarcinoma cells. The conditions noted are these: read-out: IC50 (cytotoxicity); cited from earlier work.
Data set [7] shares this test system. As to conditions: read-out: IC50 (DNA damage); cited from earlier work.
Data set [8] has as its target mitochondrial long-chain 3-ketoacyl thiolase (Homo sapiens, UniProt P55084). As to conditions: cited from earlier work.

Where a name gives a salt, the structure may show the parent alone. Read-outs that look alike come from different tables or passages of the source.

We go through eleven molecules from patent US12551475B2, “Methods and compositions for treating RNA viral infections” (Model Medicines, Inc., priority 2020, dated 2026).

T1 sequence (Q9BYF1 18-805): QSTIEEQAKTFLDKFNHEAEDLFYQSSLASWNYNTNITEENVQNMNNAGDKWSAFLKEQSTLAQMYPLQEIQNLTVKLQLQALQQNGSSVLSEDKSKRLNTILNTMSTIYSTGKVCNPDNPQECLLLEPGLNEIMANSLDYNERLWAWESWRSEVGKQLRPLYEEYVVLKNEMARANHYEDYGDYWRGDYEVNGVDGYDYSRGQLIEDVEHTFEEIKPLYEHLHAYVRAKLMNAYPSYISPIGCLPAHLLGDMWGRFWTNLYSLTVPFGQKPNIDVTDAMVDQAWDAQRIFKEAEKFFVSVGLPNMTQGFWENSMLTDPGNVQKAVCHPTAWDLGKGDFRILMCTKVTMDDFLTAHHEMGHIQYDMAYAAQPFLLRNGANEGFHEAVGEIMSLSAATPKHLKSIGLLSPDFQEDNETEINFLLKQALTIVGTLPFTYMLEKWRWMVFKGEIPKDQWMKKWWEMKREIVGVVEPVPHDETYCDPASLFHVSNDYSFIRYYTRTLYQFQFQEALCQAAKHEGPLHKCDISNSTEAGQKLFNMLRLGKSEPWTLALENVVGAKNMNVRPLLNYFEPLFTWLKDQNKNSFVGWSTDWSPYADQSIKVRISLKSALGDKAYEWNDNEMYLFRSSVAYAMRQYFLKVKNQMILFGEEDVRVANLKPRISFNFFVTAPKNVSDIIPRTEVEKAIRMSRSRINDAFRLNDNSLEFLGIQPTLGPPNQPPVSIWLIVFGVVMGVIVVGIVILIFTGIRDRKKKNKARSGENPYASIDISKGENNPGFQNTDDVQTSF
Chain of transient receptor potential canonical channel 5 (TRPC5) (Q9UL62 whole entry, species assumed): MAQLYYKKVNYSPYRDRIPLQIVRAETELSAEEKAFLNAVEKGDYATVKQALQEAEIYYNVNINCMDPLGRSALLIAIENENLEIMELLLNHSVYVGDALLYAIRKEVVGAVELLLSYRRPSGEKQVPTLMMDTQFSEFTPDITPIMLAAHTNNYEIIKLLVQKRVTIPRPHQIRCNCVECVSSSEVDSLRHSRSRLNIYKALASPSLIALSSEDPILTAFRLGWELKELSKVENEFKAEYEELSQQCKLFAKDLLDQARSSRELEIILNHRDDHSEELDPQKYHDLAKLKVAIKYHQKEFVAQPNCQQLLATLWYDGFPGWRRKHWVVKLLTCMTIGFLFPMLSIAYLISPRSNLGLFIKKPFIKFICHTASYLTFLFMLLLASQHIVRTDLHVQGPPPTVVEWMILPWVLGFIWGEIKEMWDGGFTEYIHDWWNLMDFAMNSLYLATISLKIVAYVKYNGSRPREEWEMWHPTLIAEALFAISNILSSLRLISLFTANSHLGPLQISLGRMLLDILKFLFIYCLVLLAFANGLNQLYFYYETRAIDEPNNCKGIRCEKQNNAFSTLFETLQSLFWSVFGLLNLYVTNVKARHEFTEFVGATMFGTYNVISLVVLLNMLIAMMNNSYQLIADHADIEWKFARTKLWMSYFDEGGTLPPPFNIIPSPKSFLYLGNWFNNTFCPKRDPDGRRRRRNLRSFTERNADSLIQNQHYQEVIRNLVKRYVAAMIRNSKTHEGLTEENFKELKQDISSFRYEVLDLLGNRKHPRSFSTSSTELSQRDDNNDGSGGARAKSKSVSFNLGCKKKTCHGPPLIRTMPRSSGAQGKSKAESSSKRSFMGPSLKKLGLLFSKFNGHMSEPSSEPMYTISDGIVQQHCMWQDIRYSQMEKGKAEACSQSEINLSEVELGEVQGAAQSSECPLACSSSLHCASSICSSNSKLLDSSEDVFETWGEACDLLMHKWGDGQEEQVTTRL
Chain of HIV-2 protease (P04584 514-612 limits assumed): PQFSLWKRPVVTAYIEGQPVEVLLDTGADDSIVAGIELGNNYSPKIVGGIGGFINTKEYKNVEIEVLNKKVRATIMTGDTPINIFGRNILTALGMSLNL
Chain of human acidic mammalian chitinase (Q9BZP6 22-476): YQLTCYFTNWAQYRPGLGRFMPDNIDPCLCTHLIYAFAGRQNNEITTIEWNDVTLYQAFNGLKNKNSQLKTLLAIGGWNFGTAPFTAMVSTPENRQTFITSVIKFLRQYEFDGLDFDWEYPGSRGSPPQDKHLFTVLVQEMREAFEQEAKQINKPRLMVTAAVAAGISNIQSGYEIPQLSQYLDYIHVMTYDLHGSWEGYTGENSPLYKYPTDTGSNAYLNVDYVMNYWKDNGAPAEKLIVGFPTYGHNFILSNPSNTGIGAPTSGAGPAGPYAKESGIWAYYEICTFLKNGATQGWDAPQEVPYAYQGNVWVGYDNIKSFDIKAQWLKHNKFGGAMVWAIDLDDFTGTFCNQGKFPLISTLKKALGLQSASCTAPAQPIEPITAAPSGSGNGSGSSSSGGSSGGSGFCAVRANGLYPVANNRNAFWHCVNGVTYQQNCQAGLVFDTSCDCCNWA
Chain of mitochondrial long-chain 3-ketoacyl thiolase (P55084 34-474): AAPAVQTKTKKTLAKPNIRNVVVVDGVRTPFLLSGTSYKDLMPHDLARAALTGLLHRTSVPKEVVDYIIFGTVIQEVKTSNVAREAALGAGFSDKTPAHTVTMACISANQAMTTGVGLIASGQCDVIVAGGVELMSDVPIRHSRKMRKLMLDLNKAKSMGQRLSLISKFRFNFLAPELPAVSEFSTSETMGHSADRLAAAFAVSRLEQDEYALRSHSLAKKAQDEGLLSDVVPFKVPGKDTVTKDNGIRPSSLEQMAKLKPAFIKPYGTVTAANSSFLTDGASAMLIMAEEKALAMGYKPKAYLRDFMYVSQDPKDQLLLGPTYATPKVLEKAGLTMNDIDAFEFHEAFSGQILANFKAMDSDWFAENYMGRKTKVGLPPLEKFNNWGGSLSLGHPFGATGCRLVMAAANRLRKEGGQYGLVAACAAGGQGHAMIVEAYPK
Chain of mitochondrial long-chain 3-ketoacyl thiolase (P40939 37-763 partner): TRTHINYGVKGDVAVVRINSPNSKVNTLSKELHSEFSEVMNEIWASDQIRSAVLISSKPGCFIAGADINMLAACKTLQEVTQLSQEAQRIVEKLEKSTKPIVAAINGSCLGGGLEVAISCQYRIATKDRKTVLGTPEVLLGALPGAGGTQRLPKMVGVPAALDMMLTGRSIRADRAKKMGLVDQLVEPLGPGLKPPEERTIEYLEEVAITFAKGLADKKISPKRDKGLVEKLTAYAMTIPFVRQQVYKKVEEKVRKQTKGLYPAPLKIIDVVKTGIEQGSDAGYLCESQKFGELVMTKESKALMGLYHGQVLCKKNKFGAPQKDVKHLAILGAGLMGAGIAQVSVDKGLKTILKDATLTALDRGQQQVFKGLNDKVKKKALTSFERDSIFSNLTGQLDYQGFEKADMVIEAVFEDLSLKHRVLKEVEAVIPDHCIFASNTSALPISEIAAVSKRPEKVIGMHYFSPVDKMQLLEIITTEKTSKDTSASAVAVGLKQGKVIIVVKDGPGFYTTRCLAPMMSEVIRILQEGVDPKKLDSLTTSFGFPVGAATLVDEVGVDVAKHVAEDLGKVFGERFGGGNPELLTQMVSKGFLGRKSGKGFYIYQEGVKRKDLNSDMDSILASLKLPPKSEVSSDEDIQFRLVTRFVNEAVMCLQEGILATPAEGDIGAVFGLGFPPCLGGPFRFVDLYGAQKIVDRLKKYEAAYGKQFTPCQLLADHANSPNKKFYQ

As to “1-[[4-[2-(hexahydro-1H-azepin-1-yl)ethoxy]phenyl]methyl]-2-(4-hydroxyphenyl)-3-methyl-1H-indol-5-ol, acetate [Bazedoxifene (acetate)]”, the reduction of growth with MCF-7:C cells is reported as 80%.
Take `CC(C)(C)C(=O)OCOP(=O)(COCCn1cnc2c(N)ncnc21)OCOC(=O)C(C)(C)C` [Adefovir dipivoxil, 2,2-dimethyl-propanoic acid, 1,1′-[[[[2-(6-amino-9H-purin-9-yl)ethoxy]methyl]phosphinylidene]bis(oxymethylene)]ester]: the EC50 in the data set with hepatitis B virus (HBV) is 517 nM. Besides, the CC50 in the data set with HepG2 2.2.15 cells is 540000 nM. Moreover, the ED50 in the data set with HBV is listed as 0.2 μmol/kg per day.
For the molecule `CC(C)CN(C[C@@H](O)[C@H](Cc1ccccc1)NC(=O)O[C@H]1CCOC1)S(=O)(=O)c1ccc(N)cc1` [Amprenavir, N-[(1S,2R)-3-[[(4-aminophenyl)sulfonyl](2-methylpropyl)amino]-2-hydroxy-1-(phenylmethyl)propyl]-carbamic acid, (3S)-tetrahydro-3-furanyl ester], in the data set with HIV-1, the IC50 is 150 nM.
Turning to `Clc1ccc(Cn2c(CN3CCCC3)nc3ccccc32)cc1` [Clemizole, 1-[(4-chlorophenyl)methyl]-2-(1-pyrrolidinylmethyl)-1H-benzimidazole, monohydrochloride], the IC50 in data set [1] was 1000 to 1300 nM.
Turning to `CCC[C@@H]1C[C@@H](C(=O)N[C@@H]([C@H]2O[C@H](SC)[C@H](O)[C@@H](O)[C@H]2O)[C@H](C)Cl)N(C)C1` [Clindamycin, methyl 7-chloro-6,7,8-trideoxy-6-[[[(2S,4R)-1-methyl-4-propyl-2-pyrrolidinyl]carbonyl]amino]-1-thio-L-threo-α-D-galacto-octopyranoside], the MIC is 0.002 to 0.1 µg/mL in the data set on S. pneumoniae, 0.005 to 0.2 µg/mL in the data set with S. viridans, 0.04 to 1.6 µg/mL in the data set on S. aureus and 0.1 to 0.2 µg/mL in the data set on S. epidermidis.
Consider `CC(=O)CCCCn1c(=O)c2c(ncn2C)n(C)c1=O` [Pentoxifylline, 3,7-dihydro-3,7-dimethyl-1-(5-oxohexyl)-1H-purine-2,6-dione], for which the IC50 was 500000 nM in data set [2], 85000 nM in data set [3] and 49000 nM in [4].
Turning to `CC(C)(C)NC(=O)[C@@H]1C[C@@H]2CCCC[C@@H]2CN1C[C@@H](O)[C@H](Cc1ccccc1)NC(=O)[C@H](CC(N)=O)NC(=O)c1ccc2ccccc2n1.CS(=O)(=O)O` [Saquinavir, (2S)—N^1—[(1S,2R)-3-[(3S,4aS,8aS)-3-[[(1,1-dimethylethyl)amino]carbonyl]octahydro-2(1H)-isoquinolinyl]-2-hydroxy-1-(phenylmethyl)propyl]-2-[(2-quinolinylcarbonyl)amino]-butanediamide, monomethanesulfonate], the Ki at HIV-2 protease is under 0.1 nM. The increase of bioavailability in [5] was 325 fold.
For `CC(C)[C@H](O)C(=O)N[C@@H](C)C(=O)N[C@@H]1C(=O)N(C)CCc2ccccc21` [Semagacestat, (2S)-2-hydroxy-3-methyl-N-[(1S)-1-methyl-2-oxo-2-[[(1S)-2,3,4,5-tetrahydro-3-methyl-2-oxo-1H-3-benzazepin-1-yl]amino]ethyl]-butanamide], the “ACE2 Activity (Fluorescence count) Repeat 1” value is given as 16794 on ACE2 (Semagacestat 0.00586 μM, Repeat 1); 17480 at ACE2 (Semagacestat 0.0117 μM, Repeat 1); 17334 at ACE2 (Semagacestat 0.0234 μM, Repeat 1); 16603 at ACE2 (Semagacestat 0.188 μM, Repeat 1). Further, the activity at 0.00586 µM on ACE2 (Semagacestat 0.00586 μM, Repeat 1, read-out: % Activity Repeat 1) was 99%; at ACE2 (Semagacestat 0.00586 μM, Repeat 2, read-out: % Activity Repeat 2), 104%. The “ACE2 Activity (Fluorescence count) Repeat 2” value came to 17665 on ACE2 (Semagacestat 0.00586 μM, Repeat 2); 17772 on ACE2 (Semagacestat 0.0117 μM, Repeat 2); 17846 at ACE2 (Semagacestat 0.0234 μM, Repeat 2); 16796 on ACE2 (Semagacestat 0.188 μM, Repeat 2). The activity at 0.0117 µM at ACE2 (Semagacestat 0.0117 μM, Repeat 1, read-out: % Activity Repeat 1) was found to be 103%; at ACE2 (Semagacestat 0.0117 μM, Repeat 2, read-out: % Activity Repeat 2), 105%. Further, the activity at 0.0234 µM on ACE2 (Semagacestat 0.0234 μM, Repeat 1, read-out: % Activity Repeat 1) was 102%; at ACE2 (Semagacestat 0.0234 μM, Repeat 2, read-out: % Activity Repeat 2), 105%. The activity at 0.188 µM stood at 97% at ACE2 (Semagacestat 0.188 μM, Repeat 1, read-out: % Activity Repeat 1) and 99% at ACE2 (Semagacestat 0.188 μM, Repeat 2, read-out: % Activity Repeat 2). Besides, the activity at […] at ACE2 (Semagacestat 0.75 μM, Repeat 1, read-out: % Activity Repeat 1) is 85%; at ACE2 (Semagacestat 0.75 μM, Repeat 2, read-out: % Activity Repeat 2), 98%; at ACE2 (Semagacestat 1.5 μM, Repeat 1, read-out: % Activity Repeat 1) it was 78%; at ACE2 (Semagacestat 1.5 μM, Repeat 2, read-out: % Activity Repeat 2) it was 85%. For the same molecule, the “effect on ACE2 activity (in words)” value on ACE2 (test range 0.0029-1.5) is listed as “inhibited ACE2 activity”. Moreover, the IC50 on γ-secretase (Aβ38, read-out: IC50 (production of Aβ38)) is 12 nM; at γ-secretase (Aβ40, read-out: IC50 (production of Aβ40)), 12.1 nM; at γ-secretase (Aβ42, read-out: IC50 (production of Aβ42)), 10.9 nM; with Notch signaling it was 14.1 nM.
With `CCC[C@@]1(CCc2ccccc2)CC(O)=C([C@H](CC)c2cccc(NS(=O)(=O)c3ccc(C(F)(F)F)cn3)c2)C(=O)O1` [Tipranavir, N-[3-[(1R)-1-[(6R)-5,6-dihydro-4-hydroxy-2-oxo-6-(2-phenylethyl)-6-propyl-2H-pyran-3-yl]propyl]phenyl]-5-(trifluoromethyl)-2-pyridinesulfonamide], the Ki at HIV aspartyl protease was under 1 nM.
For `CC[C@@]1(O)C(=O)OCc2c1cc1n(c2=O)Cc2cc3c(CN(C)C)c(O)ccc3nc2-1` [Topotecan, 10-[(dimethylamino)methyl]-4S-ethyl-4,9-dihydroxy-1H-pyrano[3′,4′:6,7]indolizino[1,2-b]quinoline-3,14(4H,12H)-dione, monohydrochloride], the IC50 in data set [6] was 33 nM; in data set [7] it was 280 nM.
Take `COc1ccc(CN2CCNCC2)c(OC)c1OC` [Trimetazidine (hydrochloride), 1-[(2,3,4-trimethoxyphenyl)methyl]-piperazine, dihydrochloride]: the IC50 in data set [8] is 75 nM.
